Data as given in patent publication US20170298360A1, “LATS AND BREAST CANCER” (FRIEDRICH MIESCHER INSTITUTE FOR BIOMEDICAL RESEARCH, priority 2014, published 2017).
Peptide text beside a SMILES is read from it. * marks the point of attachment. Cbz = O=C(OCc1ccccc1)*

Legend:
ERα [1] = assay: LATS1-induced ERα degradation in LATS1 overexpressing cells (immunoblot); assay type: cell-based, human
Protocol: Cell lines and in vitro experiments SUM159PT human breast cancer cells were from Asterand and propagated as recommended. All the other cell lines were from, and were cultured according to the protocol of ATCC. MCF10A cells were maintained as previously described (Bentires-Alj et al., 2006). For most experiments, MCF10A, SUM159 and MDA 436 cells were cultured in M5 medium and the medium was refreshed or replaced every 3 days. Antibody blocking experiments were performed by adding anti-AREG (R&D, MAB262, 0.5-10 μg/ml) or a mouse IgG antibody (R&D, 10 or 2.5 μg/ml) to the medium prior to seeding of the cells or transferring the conditioned medium. Cell viability was measured using the Cell Proliferation Reagent WST-1 (Roche). Colony formation assays were performed by seeding 500-1000 cells/well in 6-well plates. Cells were allowed to adhere overnight before treatment with inhibitors or solvent as indicated. Colonies were stained after 6-10 days with 0.2% crystal violet in PBS/4% formalin. Colony area was quantified using the Odyssey scanner and software (LICOR) or Image-J (Fiji 64 bit). For sphere formation assays, 4000 (passage 1) or 1000 (subsequent passages) MCF10A cells/ml were grown in ultra-low attachment (ULA) dishes (Corning) for 5-7 days. […]

T47D and MCF7 cells = assay: Cell viability (WST-1) of ER-positive breast cancer cells after downregulation of LATS; assay type: cell-based, human; settings: LATS downregulated vs control
Source text: (§1) Lentiviral vectors, lentivirus production and infection For LATS knockdown, the following TRC pLKO clones (Sigma) were used: LATS_1=NM_004690.x-2666s1c1, LATS_2=NM_004690.x-3614s1c1, LATS_3=NM_014572.x-2894s1c1 and the MISSION® Non-Target shRNA Control Vector SHC002. For the competition experiment, GFP and ERα expressing lentiviral vectors were cloned as described in (Duss, BCR, 2007). Lentiviruses were produced by PEI transfection of 293 T cells as described (Britschgi et al., 2012; Duss et al., 2014). The titer of each lentiviral batch was determined on PHBECs or MCF10A cells. Cell lines were infected o/n in the presence of hexamethrine bromide (8 μg/mL). Infections were performed at a multiplicity of infection of 5-20 viral particles per cell. Selection with 1.25-1.5 μg/ml puromycin was applied 48 h after infection.
(§2) Cell lines and in vitro experiments SUM159PT human breast cancer cells were from Asterand and propagated as recommended. All the other cell lines were from, and were cultured according to the protocol of ATCC. MCF10A cells were maintained as previously described (Bentires-Alj et al., 2006). […] Cell viability was measured using the Cell Proliferation Reagent WST-1 (Roche). […] Colony area was quantified using the Odyssey scanner and software (LICOR) or Image-J (Fiji 64 bit). […]

ERα [2] = target: T1, ERα (Homo sapiens, UniProt P03372); assay: ERα degradation in luminal breast cancer cells lacking LATS; assay type: cell-based; settings: cancer cells lacking LATS grown as xenograft
T1 sequence (P03372 1-595): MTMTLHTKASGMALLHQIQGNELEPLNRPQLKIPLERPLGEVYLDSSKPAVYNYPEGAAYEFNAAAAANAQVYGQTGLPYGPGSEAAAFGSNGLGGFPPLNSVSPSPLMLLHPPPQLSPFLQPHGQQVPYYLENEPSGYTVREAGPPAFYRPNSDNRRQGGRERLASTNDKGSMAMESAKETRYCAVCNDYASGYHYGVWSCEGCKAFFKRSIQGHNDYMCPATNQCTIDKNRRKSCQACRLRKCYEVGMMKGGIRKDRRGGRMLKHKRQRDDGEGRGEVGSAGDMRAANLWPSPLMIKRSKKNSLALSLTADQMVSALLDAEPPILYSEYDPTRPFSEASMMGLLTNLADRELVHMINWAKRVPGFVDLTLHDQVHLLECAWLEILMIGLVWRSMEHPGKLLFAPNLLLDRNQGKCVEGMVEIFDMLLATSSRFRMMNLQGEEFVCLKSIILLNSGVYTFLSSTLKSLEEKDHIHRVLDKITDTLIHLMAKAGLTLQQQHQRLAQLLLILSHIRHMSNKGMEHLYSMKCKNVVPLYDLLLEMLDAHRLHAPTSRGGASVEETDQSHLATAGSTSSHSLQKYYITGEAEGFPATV
Protocol: Immunoblotting and immunoprecipitation Cells for immunoblotting and ELISA were lysed with RIPA buffer (50 mM Tris-HCl pH 8, 150 mM NACl, 1% NP-40, 0.5% sodium deoxycholate, 0.1% SDS), supplemented with 1× protease inhibitor cocktail (Complete Mini, Roche), 0.2 mMol/L sodium orthovanadate, 20 mM sodium fluoride and 1 mM phenylmethylsulfonyl fluoride. […]

T47D = assay: Orthotopic xenograft tumor growth of ER-positive breast cancer cells lacking LATS; assay type: in vivo, mouse; settings: cancer cells lacking LATS grown as xenograft, intraperitoneal
Protocol: Animal experiments SCID/beige and SCID/NOD (Jackson Labs) were used in compliance with the Swiss laws for animal welfare and animal protocols were approved by the Swiss Cantonal Veterinary Office of Basel. For orthotopic engraftment of breast cancer cell lines, 2×10^6 T47D or 1×10^6 SUM159 cells were suspended in a 100 μl mixture of Basement Membrane Matrix Phenol Red-free (BD Biosciences) and PBS 1:1 and injected into the mouse mammary gland 4. For the estrogen-dependent T47D cell line, mice received estrogen-containing drinking water 2 days prior to injection. Tumor-bearing mice were randomized based on tumor volume prior to the initiation of treatment, which started when average tumor volume was at least 100 mm^3. Fulvestrant and Tamoxifen hydrate dissolved in sunflower seed oil (all from Sigma) were injected intraperitoneally as indicated. Tumors were measured every 3 to 4 days with vernier calipers, and tumor volumes were calculated by the formula 0.5×(larger diameter)×(smaller diameter)^2.
Compounds and formulations Fulvestrant, 4-Hydroxytamoxifen (4-OHT), Tamoxifen (OHT), Cycloheximide and MG132 were from Sigma. Fulvestrant and MG-132 were prepared as 10 mMol/L stock solution in DMSO, 4-OHT and Cycloheximide as 10 mMol/L in ethanol and all stock solutions were stored at −20° C. […]

SUM159 and MDA 436 = assay: Colony formation of triple-negative breast cancer lines with or without LATS; assay type: cell-based, human; settings: SUM159 and MDA 436 in M5 medium
Source text: as §1, §2

SUM159 shLATS xenografts = assay: Orthotopic SUM159 shNT / shLATS xenograft tumor growth; assay type: in vivo, mouse; settings: tumor-bearing mice, tamoxifen citrate 3 mg/kg, intraperitoneal, n=5, **P<0.01 vs shNT
Protocol: Animal experiments SCID/beige and SCID/NOD (Jackson Labs) were used in compliance with the Swiss laws for animal welfare and animal protocols were approved by the Swiss Cantonal Veterinary Office of Basel. For orthotopic engraftment of breast cancer cell lines, 2×10^6 T47D or 1×10^6 SUM159 cells were suspended in a 100 μl mixture of Basement Membrane Matrix Phenol Red-free (BD Biosciences) and PBS 1:1 and injected into the mouse mammary gland 4. […] Tumor-bearing mice were randomized based on tumor volume prior to the initiation of treatment, which started when average tumor volume was at least 100 mm^3. Fulvestrant and Tamoxifen hydrate dissolved in sunflower seed oil (all from Sigma) were injected intraperitoneally as indicated. Tumors were measured every 3 to 4 days with vernier calipers, and tumor volumes were calculated by the formula 0.5×(larger diameter)×(smaller diameter)^2.
For in vivo studies, fulvestrant and tamoxifen were dissolved in sunflower seed oil (Sigma) and injected intraperitoneal as indicated.

Row | degradation of ERα (ERα [2]) | SMILES | LATS1-induced degradation of ERα (ERα [1]) | effect of LATS downregulation on sensitivity / viability of treated cells (T47D and MCF7 cells) | reduction of tumor growth (T47D) | colony formation in cells lacking LATS compared to controls (SUM159 and MDA 436) | tumor growth of SUM159 shLATS xenografts (SUM159 shLATS xenografts) | tumor growth of SUM159 shLATS xenografts (SUM159 shLATS xenografts; listed as tamoxifen citrate)
1 | – | CC(C)C[C@@H](C=O)NC(=O)[C@H](CC(C)C)NC(=O)[C@H](CC(C)C)NC(=O)OCc1ccccc1 [MG132] (Cbz-Leu-Leu-Leu-aldehyde) | prevented | – | – | – | – | –
2 | failed to degrade ERα | C[C@]12CC[C@@H]3c4ccc(O)cc4C[C@@H](CCCCCCCCC[S+]([O-])CCCC(F)(F)C(F)(F)F)[C@H]3[C@@H]1CC[C@@H]2O (stereo partly drawn) [fulvestrant, Fulvestrant] | – | reduced sensitivity | failed | no effect | – | –
3 | – | CC/C(=C(\c1ccccc1)c1ccc(OCCN(C)C)cc1)c1ccccc1 [tamoxifen, Tamoxifen] | – | no effect | – | reduced colony formation | stopped growing | susceptible
